Data reported in US20150111864A1, “CRYSTALLINE FORM OF A BETA-LACTAMASE INHIBITOR” (Cubist Pharmaceuticals, Inc., priority 2013, published 2015).

Assays:
Ecl.569 (AmpC, clinical) = assay: Standard BLI Potentiation MIC Assay in Combination with Ceftolozane; format: cell-based, Enterobacter spp; settings: Ecl.569, AmpC, clinical; BLI at 4 μg/mL
Method: (§1) The experimental protocol was performed according to Clinical and Laboratory Standards Institute (CLSI) guidelines with modifications as described below (CLSI guidelines can be derived from the CLSI document M07-A9 published in January 2012: “Methods for Dilution Antimicrobial Susceptibility Tests for Bacteria That Grow Aerobically; Approved Standard-Ninth Edition”).
(§2) Frozen glycerol stocks of laboratory engineered, isogenic E. coli strains, which contain cloned β-lactamase expressing plasmids were used to streak for isolated colonies on rich, selective LB agar supplemented with 25 μg/mL tetracycline to maintain the plasmid. All strains were incubated at 37° C. for 18-24 hrs.
(§3) On the day of testing, primary cultures were started by scraping off 5-10 colonies from the TSAB plates containing clinical strains or the tetracycline supplemented LB plates containing engineered strains. […]
(§4) Plates were incubated for 18-20 hours at 37° C. with aeration (200 rpm). Following incubation, growth was confirmed visually placing plates over a viewing apparatus (stand with a mirror underneath) and then OD600 was measured using a SpectraMax 340PC384 plate reader (Molecular Devices, Sunnyvale, Calif.). Growth was defined as turbidity that could be detected with the naked eye or achieving minimum OD600 of 0.1. […]

[1] = system: Pae.2757 (AmpC over-expn, clinical); assay: as above; format: cell-based, Pseudomonas aeruginosa; settings: Pae.2757, AmpC over-expn, clinical; BLI at 4 μg/mL
Method: as §1, §2
(§5) On the day of testing, primary cultures were started by scraping off 5-10 colonies from the TSAB plates containing clinical strains or the tetracycline supplemented LB plates containing engineered strains. The clinical strain material was suspended in ˜5 mL of cation adjusted Mueller Hinton Broth (CAMHB) in 14 mL culture tubes. The engineered strain material was suspended in CAMHB (supplemented with 25 μg/mL tetracycline) in 14 mL culture tubes. All strains were incubated at 37° C. with aeration (200 rpm) for ˜2 hrs until the optical density at 600 nm (OD600) was ≧0.1.
(§6) The two compound components of the assay were each diluted in CAMHB and added to the 96-well broth microdilution assay plates. 50 μL of the β-lactam was added to each well of the assay plate in 2-fold dilutions with final concentrations ranging from 128 to 0.13 μg/mL. 25 μL of the BLI compound was added to all wells in the broth microdilution plates at a final concentration of 4 μg/mL. Inoculum cultures were prepared by standardizing the primary cultures to OD600=0.1 and then adding 20 μL of the adjusted primary culture per 1 mL CAMHB for clinical strains or CAMHB (supplemented with tetracycline at 100 μg/mL) for engineered strains, so that the final inoculum density was ˜10^5 colony forming units per milliliter. Diluted inoculum cultures were used to inoculate 25 μL per well in 96-well broth microdilution assay plates. The final volume of each well was 100 μL and contained a β-lactam at different concentrations, a BLIcompound at 4 μg/mL concentration, the bacterial culture at an OD600 of approximately 0.001 and when necessary tetracycline at 25 μg/mL.
(§7) Plates were incubated for 18-20 hours at 37° C. with aeration (200 rpm). Following incubation, growth was confirmed visually placing plates over a viewing apparatus (stand with a mirror underneath) and then OD600 was measured using a SpectraMax 340PC384 plate reader (Molecular Devices, Sunnyvale, Calif.). Growth was defined as turbidity that could be detected with the naked eye or achieving minimum OD600 of 0.1. MIC values were defined as the lowest concentration producing no visible turbidity.

[2] = system: Pae.2863 (AmpC de-repress, clinical); assay: as above; format: cell-based, Pseudomonas aeruginosa; settings: Pae.2863, AmpC de-repress, clinical; BLI at 4 μg/mL
Method: as §1, §2, §5, §6, §7

[3] = system: Pae.2885 (AmpC, clinical); assay: as above; format: cell-based, Pseudomonas aeruginosa; settings: Pae.2885, AmpC, clinical; BLI at 4 μg/mL
Method: as §1, §2, §5, §6, §7

[4] = system: Eco.2491 (CMY-2, clinical); assay: as above; format: cell-based, Escherichia coli; settings: Eco.2491, CMY-2, clinical; BLI at 4 μg/mL
Method: as §1, §2, §5, §6, §7

[5] = system: Eco.2845 (OXA-15, isogenic); assay: as above; format: cell-based, Escherichia coli; settings: Eco.2845, OXA-15, isogenic; BLI at 4 μg/mL
Method: as §1, §2, §5, §6, §7

[6] = system: Eco.2843 (DHA-1, isogenic); assay: as above; format: cell-based, Escherichia coli; settings: Eco.2843, DHA-1, isogenic; BLI at 4 μg/mL
Method: as §1, §2, §5, §6, §7

[7] = system: Eco isogenic strain expressing OXA-15; assay: Synergy MIC (sMIC) assay; format: cell-based, Escherichia coli; settings: β-Lactam CXA-101 at 4 μg/mL; OXA-15, isogenic Eco
Method: (§8) The synergy MIC (sMIC) assay determines the concentration of the BLI required to potentiate the activity of a fixed concentration of a β-lactam antibiotic against β-lactamase producing bacterial strains. The experimental protocol was performed according to Clinical and Laboratory Standards Institute (CLSI) guidelines with modifications as described below (CLSI guidelines can be derived from the CLSI document M07-A9 published in January 2012: “Methods for Dilution Antimicrobial Susceptibility Tests for Bacteria That Grow Aerobically; Approved Standard-Ninth Edition”). The assay wa set-up by serially diluting the BLI across 11 of the 12 wells in each row of a 96-well broth microdilution assay plate, adding the β-lactam at a fixed concentration to all wells in the assay plate, inoculating the assay plate with bacterial strains, and determining the lowest concentration of BLI required to inhibit overnight bacterial growth.
as §2
(§9) On the day of testing, primary cultures were started by scraping off 5-10 colonies from the TSAB plates containing clinical strains or the tetracycline supplemented LB plates containing engineered strains. The clinical strain material was suspended in ˜5 mL of cation adjusted Mueller Hinton Broth (CAMHB) in 14 mL culture tubes. The engineered strain material was suspended in CAMHB (supplemented with tetracycline at 25 μg/mL) in 14 mL culture tubes. All strains were incubated at 37° C. with aeration (200 rpm) for ≧2 hrs until the OD600 was ≧0.1.
(§10) The two compound components of the assay were each prepared in CAMHB and added to the 96-well broth microdilution assay plates. 50 μL of the BLI was added to each well of the assay plate in 2-fold dilutions with final concentrations ranging from 128 to 0.13 μg/mL. 25 μL of the β-lactam was added to all wells in the broth microdilution plates at a final concentration of 4 μg/mL. Inoculum cultures were prepared by standardizing the primary cultures to OD600=0.1 and then adding 20 μL of the adjusted primary culture per 1 mL CAMHB for clinical strains or CAMHB (supplemented with tetracycline at 100 μg/mL) for isogenic strains, so that the final inoculum density was ˜10^5 colony forming units per milliliter. Diluted inoculum cultures were used to inoculate 25 μL per well in 96-well broth microdilution assay plates. The final volume of each well was 100 μL and contained a BLI at different concentrations, a β-lactam at 4 μg/mL concentration, the bacterial culture at an OD600 of approximately 0.001 and when necessary tetracycline at 25 ug/mL.
(§11) Plates were incubated for 18-20 hours at 37° C. with aeration (200 rpm). Following incubation, growth was confirmed visually placing plates over a viewing apparatus (stand with a mirror underneath) and then OD600 was measured using a SpectraMax 340PC384 plate reader (Molecular Devices, Sunnyvale, Calif.). Growth was defined as turbidity that could be detected with the naked eye or achieving minimum OD600 of 0.1. sMIC values were defined as the lowest concentration producing no visible turbidity. […]

[8] = system: Eco isogenic strain expressing SHV-12; assay: Synergy MIC (sMIC) assay; format: cell-based, Escherichia coli; settings: β-Lactam CXA-101 at 4 μg/mL; SHV-12, isogenic Eco
Method: as §8, §2, §9, §10, §11

[9] = system: Eco isogenic strain, β-Lactamase none; assay: Synergy MIC (sMIC) assay; format: cell-based, Escherichia coli; settings: β-Lactam none
Method: as §8, §2, §9, §10, §11

[10] = system: Eco isogenic strain expressing P99; assay: Synergy MIC (sMIC) assay; format: cell-based, Escherichia coli; settings: β-Lactam CXA-101 at 4 μg/mL
Method: as §8, §2, §9, §10, §11

[11] = system: Eco isogenic strain expressing CTX-M-15; assay: Synergy MIC (sMIC) assay; format: cell-based, Escherichia coli; settings: β-Lactam CXA-101 at 4 μg/mL; CTX-M-15, isogenic Eco
Method: as §8, §2, §9, §10, §11

[12] = system: Panel of Isogenic and Clinical Strains Expressing β-Lactamases; assay: Standard BLI Potentiation MIC Assay in Combination with Ceftolozane, whole panel; format: cell-based; settings: panel of 24 strains; BLI at 4 μg/mL
Method: as §1, §2, §5, §6, §4

Cfr.568 (AmpC, clinical) = assay: Standard BLI Potentiation MIC Assay in Combination with Ceftolozane; format: cell-based, Citrobacter spp; settings: Cfr.568, AmpC, clinical; BLI at 4 μg/mL
Method: as §1, §2, §3, §4

(2S,5R)-2-(5-(3-aminopropyl)-1,3,4-oxadiazol-2-yl)-7-oxo-1,6-diazabicyclo[3.2.1]octan-6-yl hydrogen sulfate [ψ]
B (B = 1-2 μg/mL): MIC of Ceftolozane in combination with BLI [1] | MIC of Ceftolozane in combination with BLI [2] | MIC of Ceftolozane in combination with BLI [5] | sMIC [7] | sMIC [8] | sMIC [10] | MIC90 of Ceftolozane in combination with BLI [12]
A (A = 0.25-0.5 μg/mL): MIC of Ceftolozane in combination with BLI (Ecl.569 (AmpC, clinical)) | MIC of Ceftolozane in combination with BLI [3] | sMIC [11] | MIC50 of Ceftolozane in combination with BLI [12] | MIC of Ceftolozane in combination with BLI (Cfr.568 (AmpC, clinical))
AA (AA = <0.25 μg/mL): MIC of Ceftolozane in combination with BLI [4] | MIC of Ceftolozane in combination with BLI [6]
D (D = 16-32 μg/mL): sMIC [9]
